Common to all, as to assay type: cell-based, human
One test deals with AML blasts. Briefly: SCNP / phospho-flow modulated signaling assay, AML study No. 1 (PBMC at diagnosis, CR vs NR).
The test system of test [1] is AML BMMC leukemic blasts. The test can be described thus: SCNP modulated signaling assay, AML study No. 2 (BMMC, CR vs NR, clinical sub-groups).
Test [2] concerns pediatric AML leukemic blasts. The test can be described thus: SCNP assay on pediatric AML bone marrow samples, POG trial 9421 (Example 11).
Procedure: SCNP assays were performed on 77 bone marrow samples from pediatric AML patients enrolled in POG trial 9421 of which 67 were evaluable/had sufficient data for analysis and were enriched for non-responders (NR). 80 combinations of modulators and intra-cellular proteins (signaling nodes) were investigated including nodes involved in the phosphoinositide 3-kinase (PI3K), Janus Kinases (JAK), signal transducers and activators of transcription (STAT) and the DNA damage response and apoptosis pathways. Basal and modulated protein levels in leukemic blasts were measured using several metrics (e.g., fold change, total level of phosphorylation, and a rank based method Uu measuring the proportion of cells that shift from baseline), and nodes were examined in univariate and multivariate analyses for their ability to discriminate between AML responsive (CR, n=46) and non-responsive (NR, n=21) to anthracycline/cytarabine-based induction therapy. Furthermore, nodes were examined for their ability to identify patients likely to be in complete continuous remission (CCR, n=23) or relapse (CR-Rel, n=23) within 4 years.
The test system of the next test is AML leukemic cells. The test can be described thus: Apoptosis/cytostasis arm: 48-hr kinase inhibitor incubation of AML cells (cleaved PARP, CyclinB1, p-Histone H3). The conditions noted are these: 1 μM; two samples with the greatest SCF and G-CSF signaling response and most robust proliferation. As to the method: The TKIs impact was measured on distal functional readouts, including apoptosis (cleaved PARP) and cell cycle (CyclinB1-S/G2 phase; p-Histone H3-M phase). All results were compared with results from bone marrow samples from healthy donors (N=6).

Test [3] has as its system AML BMMC leukemic blasts. The test can be described thus: Functional apoptosis assay, AML study No. 2 (etoposide or Ara-C and daunorubicin, 24 hours). The conditions noted are these: patients younger than 60 years old. The protocol: Multi-parameter flow cytometric analysis was performed on BMMC samples taken at diagnosis from 61 AML patients. The samples were balanced for complete response (CR) and non-responders (NR) after 1 to 3 cycles of induction therapy and de novo versus secondary AML. Nodes in Tables 2 to 10 were examined.
Functional assays were performed as previously described. […]
The median fluorescence intensity (MFI) was computed for each node from the fluorescence intensity levels for the cells in the myeloid population. The MFI values were then used to compute a variety of metrics by comparing them to baseline or background values, including the unmodulated condition, cellular autofluorescence and antibody isotype controls. The following metrics were computed: • 1. Basal MFI (“Basal”)=log2(MFIUnmodulated Stained)−log2(MFIGated Unstained (Autofluoresence)), designed to measure the basal levels of a certain protein under unmodulated conditions. • 2. Fold Change MFI (“Fold”)=log2(MFIModulated Stained)−log2(MFIUnmodulated Stained), a measure of the change in the activation state of a protein under modulated conditions. • 3. Total Phospho MFI (“TotalPhospho”)=log2(MFIModulated Stained)−log2(MFIGated Unstained (Autofluorescence)), a measure of the total levels of a protein under modulated conditions. • 4. […]

For test [4], the system named is FLT3-WT and FLT3-ITD AML leukemic blasts. The test can be described thus: SCNP signaling and apoptosis in FLT3-WT versus FLT3-ITD AML samples (Example 9). To be noted: FLT3-ITD vs FLT3-WT samples, study 1 and study 2. An excerpt: This example identifies intracellular signaling pathways associated with FLT3 ITD in two independent cohorts of diagnostic AML samples that serve as an improvement over current clinical tools in the identification of clinically meaningful altered FLT 3 and has implications for cohort selection in the development of FLT3 inhibitors. The two cohorts of data were further analyzed to investigate the differences in signaling between FLT-WT and FLT-ITD samples. The first cohort of data (“study 1”) comprised the 34 samples from University Health Network outlined in Table 16 and Table 19. The second cohort of data (“study 2”) comprised an 83 sample subset of MD Anderson Cancer Center data outlined in Table 16 (and Table 19). The 83 sample subset was selected based on known FLT3 mutation status. Both cohorts of data were used to investigate differences in FLT3 signaling between leukemic blasts and control data.
In order to further characterize wild-type FLT receptor signaling in AML, we compared FLT3L-induced signaling in the myeloblast population of control BMMC samples with FLT3L-induced signaling in the leukemic blast population of FLT3-WT AML samples.
Univariate analysis, unadjusted for multiple testing, was performed sequentially and independently on the two study cohorts in order to identify signaling nodes that distinguished with FLT3-ITD from FLT3-WT AML patient samples. […] Results from both studies include the AUC, Wilcoxon and t-test p-value for each node, and the number/mean value of the samples in the FLT3-ITD and FLT3-WT AML groups with common stratifying nodes summarized in FIG. 23. Although the majority of the discussion herein is directed to nodes that had similar reponses within the two cohorts of data, some differences were observed between the two cohorts of data. These differences may have been due to the different clinical characteristics of the two cohorts of data, specifically biases in the data from UHN.

In the case of `OO` [H2O2, hydrogen peroxide, reference compound], in the test with AML blasts (CR patients versus NR patients), the “phosphorylated PLCγ2 and SLP-76 upon H2O2 treatment” value is “attained higher levels of phosphorylated PLCγ2 and SLP-76 upon H2O2 treatment”. The “p-Akt levels upon H2O2 treatment” value in the test with AML blasts (NR vs CR patient blasts) is listed as “higher levels of p-Akt in NR patients versus CR patients”. Besides, the “p-AKT and p-PLCγ2 following H2O2 treatment” value in the test on AML BMMC leukemic blasts [1] (NR samples, older patient cohort (>=60 years)) was “increases in p-AKT and p-PLCγ2”. For the same compound, in the test with AML BMMC leukemic blasts [1] (Study No. 2, all patients, CR samples), the “Mean Value of CRs, p-Akt Fold” value was found to be 0.68. Further, the “Mean Value of NRs, p-Akt Fold” value in the test with AML BMMC leukemic blasts [1] (Study No. 2, all patients, NR samples) came to 0.91. For the same compound, the “H2O2 and FLT3L responses, NR vs CR” value in the test on AML BMMC leukemic blasts [1] (patients younger than 60 years old (so in the source)) was “NRs have higher H2O2 and FLT3L responses than CRs”. For the same compound, the “p-Akt and p-PLC gamma levels with hydrogen peroxide as modulator” value in test [2] (NR samples) is “lower p-Akt and p-PLC gamma levels in NR samples”.

As to `C[C@@H]1CCN(C(=O)CC#N)C[C@@H]1N(C)c1ncnc2[nH]ccc12` [CP-690,550], the “sensitivity to kinase inhibitor as measured by cytostasis readouts” value in the test on AML leukemic cells was “most sensitive”.

For `COc1cc([C@@H]2c3cc4c(cc3[C@@H](O[C@@H]3O[C@@H]5CO[C@@H](C)O[C@H]5[C@H](O)[C@H]3O)[C@H]3COC(=O)[C@H]23)OCO4)cc(OC)c1O` [Etoposide], in the test with AML BMMC leukemic blasts [3], the “induced apoptosis, CR vs NR” value is recorded as “CRs induce apoptosis to Etoposide or Ara-C/Daunorubicin more than NRs”. Also, in test [4], the “in vitro apoptosis (etoposide→c-PARP|Total)” value was “more sensitive to in vitro apoptosis than FLT3-WT samples”. Besides, in test [2] (CR n=46, NR n=21), the “apoptotic response (c-PARP, p-Chk2), CR vs NR” value is given as “higher levels of apoptosis in CR samples than in NR samples”.

The values are drawn from patent US8399206B2, “Methods for diagnosis, prognosis and methods of treatment” (Nodality, Inc., priority 2008, dated 2013).
